# Legend:
# [1] = tested on: kochia; experiment: Test C postemergence; type: in vivo, Kochia scoparia
# Method in brief: (§1)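 Seeds were planted in loam soil plus sand and sprayed preemergence. In parallel, potted plants in a peat-based medium were sprayed postemergence at 2 to 18 cm (1- to 4-leaf stage). Compounds were formulated in non-phytotoxic solvent with surfactant.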
# [2] = tested on: barnyardgrass; experiment: Test C postemergence; type: in vivo, Echinochloa crus-galli
# Method in brief: as §1
# [3] = tested on: corn; experiment: Test A postemergence; type: in vivo, Zea mays; details: Zea mays, post-emergence, 240 h, 0 to 100 scale (0 no effect, 100 complete control), approx. 10 d
# Method in brief: (§2)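 Test chemicals, formulated in a surfactant-containing non-phytotoxic solvent mixture, are applied either as a directed soil spray to newly planted seeds or as a postemergence application to plants at the one- to two-leaf stage (2–10 cm). All plants grow in a loam soil and sand blend.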
# [4] = tested on: oilseed rape; experiment: Test C postemergence; type: in vivo, Brassica napus
# Method in brief: as §1
# [5] = tested on: barnyardgrass; experiment: Test A postemergence; type: in vivo, Echinochloa crus-galli; details: Echinochloa crus-galli, post-emergence, 240 h, 0 to 100 scale (0 no effect, 100 complete control), approx. 10 d, read-out: Plant response rating, Barnyardgrass
# Method in brief: as §2
# [6] = tested on: pigweed; experiment: Test A preemergence; type: in vivo, Amaranthus retroflexus; details: Amaranthus retroflexus, pre-emergence, 240 h, 0 to 100 scale (0 no effect, 100 complete control), read-out: Plant response rating, Pigweed
# Method in brief: as §2
# [7] = tested on: rice; experiment: Test B flooded paddy test; type: in vivo, Oryza sativa; details: Oryza sativa, 360 h, 125 g ai/ha, applied to paddy water at 2-leaf stage, visual rating after 13 to 15 d, scale 0 (no effect) to 100 (complete control), read-out: Plant response rating, Rice, Flood
# Method in brief: (§3)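 Pots were flooded to 3 cm above the soil at treatment, and compounds were applied directly into the paddy water. That depth was held throughout. After 13 to 15 d in a greenhouse, plants were rated visually against untreated controls.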
# [8] = tested on: foxtail, giant; experiment: Test C postemergence; type: in vivo, Setaria faberii
# Method in brief: as §1
# [9] = tested on: ragweed; experiment: Test C postemergence; type: in vivo, Ambrosia elatior
# Method in brief: as §1
# [10] = tested on: foxtail, giant; experiment: Test A postemergence; type: in vivo, Setaria faberii; details: Setaria faberi, post-emergence, 240 h, 0 to 100 scale (0 no effect, 100 complete control), approx. 10 d, read-out: Plant response rating, Foxtail, Giant
# Method in brief: as §2
# [11] = tested on: chickweed; experiment: Test C postemergence; type: in vivo, Stellaria media
# Method in brief: as §1
# [12] = tested on: wheat (winter wheat); experiment: Test C postemergence; type: in vivo, Triticum aestivum
# Method in brief: as §1
# [13] = tested on: johnsongrass; experiment: Test C postemergence; type: in vivo, Sorghum halepense
# Method in brief: as §1
# [14] = tested on: ducksalad; experiment: Test B flooded paddy test; type: in vivo, Heteranthera limosa; details: Heteranthera limosa, 360 h, 125 g ai/ha, applied to paddy water at 2-leaf stage, visual rating after 13 to 15 d, scale 0 (no effect) to 100 (complete control), read-out: Plant response rating, Ducksalad, Flood
# Method in brief: as §3
# [15] = tested on: nutsedge, yellow; experiment: Test C postemergence; type: in vivo, Cyperus esculentus
# Method in brief: as §1
# [16] = tested on: pigweed; experiment: Test C postemergence; type: in vivo, Amaranthus retroflexus
# Method in brief: as §1
# [17] = tested on: velvetleaf; experiment: Test C postemergence; type: in vivo, Abutilon theophrasti
# Method in brief: as §1
# [18] = tested on: ryegrass, Italian; experiment: Test C postemergence; type: in vivo, Lolium multiflorum
# Method in brief: as §1
# [19] = tested on: blackgrass; experiment: Test C postemergence; type: in vivo, Alopecurus myosuroides
# Method in brief: as §1
# [20] = tested on: oat, wild; experiment: Test C postemergence; type: in vivo, Avena fatua
# Method in brief: as §1
compound,measurement,setting,value
"CCc1nc(-c2ccc(C(F)(F)F)cc2)nn1Cc1ccnc(C(F)(F)F)c1 [Compound 1, 4-[[5-ethyl-3-[4-(trifluoromethyl)phenyl]-1H-1,2,4-triazol-1-yl]methyl]-2-(trifluoromethyl)pyridine]",Plant response rating (scale of 0 to 100 where 0 is no effect and 100 is complete control),[1]; 31 g ai/ha,85
same,Plant response rating (scale of 0 to 100 where 0 is no effect and 100 is complete control),[1]; 62 g ai/ha,85
same,Plant response rating (scale of 0 to 100 where 0 is no effect and 100 is complete control),[1]; 125 g ai/ha,90
same,Plant response rating (scale of 0 to 100 where 0 is no effect and 100 is complete control),[1]; 250 g ai/ha,90
same,Plant response rating (scale of 0 to 100 where 0 is no effect and 100 is complete control),[2]; 31 g ai/ha,10
same,Plant response rating (scale of 0 to 100 where 0 is no effect and 100 is complete control),[2]; 62 g ai/ha,15
same,Plant response rating (scale of 0 to 100 where 0 is no effect and 100 is complete control),[2]; 125 g ai/ha,15
same,Plant response rating (scale of 0 to 100 where 0 is no effect and 100 is complete control),[2]; 250 g ai/ha,50
same,"Corn plant response rating (crop injury, 0 = no effect, 100 = complete kill) at 125 g/ha",[3]; 125 g ai/ha,30%
same,"Corn plant response rating (crop injury, 0 = no effect, 100 = complete kill) at 500 g/ha",[3]; 500 g ai/ha,80%
same,Plant response rating (scale of 0 to 100 where 0 is no effect and 100 is complete control),"[4]; Oilsee Rape, 250 g ai/ha",90
same,Plant response rating (scale of 0 to 100 where 0 is no effect and 100 is complete control),"[4]; Oilseed Rape, 31 g ai/ha",50
same,Plant response rating (scale of 0 to 100 where 0 is no effect and 100 is complete control),"[4]; Oilseed Rape, 62 g ai/ha",70
same,Plant response rating (scale of 0 to 100 where 0 is no effect and 100 is complete control),"[4]; Oilseed Rape, 125 g ai/ha",80
same,pest or weed control at 125 g/ha,[5]; 125 g ai/ha,80%
same,pest or weed control at 500 g/ha,[5]; 500 g ai/ha,90%
same,pest or weed control at 125 g/ha,[6]; 125 g ai/ha,100%
same,pest or weed control at 500 g/ha,"[6]; 500 g ai/ha, approx. 10 d",100%
same,plant injury at 125 g/ha,[7],25%
same,Plant response rating (scale of 0 to 100 where 0 is no effect and 100 is complete control),[8]; 31 g ai/ha,35
same,Plant response rating (scale of 0 to 100 where 0 is no effect and 100 is complete control),[8]; 62 g ai/ha,35
same,Plant response rating (scale of 0 to 100 where 0 is no effect and 100 is complete control),[8]; 125 g ai/ha,55
same,Plant response rating (scale of 0 to 100 where 0 is no effect and 100 is complete control),[8]; 250 g ai/ha,55
same,Plant response rating (scale of 0 to 100 where 0 is no effect and 100 is complete control),[9]; 31 g ai/ha,60
same,Plant response rating (scale of 0 to 100 where 0 is no effect and 100 is complete control),[9]; 62 g ai/ha,70
same,Plant response rating (scale of 0 to 100 where 0 is no effect and 100 is complete control),[9]; 125 g ai/ha,75
same,Plant response rating (scale of 0 to 100 where 0 is no effect and 100 is complete control),[9]; 250 g ai/ha,80
same,pest or weed control at 125 g/ha,[10]; 125 g ai/ha,90%
same,pest or weed control at 500 g/ha,[10]; 500 g ai/ha,100%
same,Plant response rating (scale of 0 to 100 where 0 is no effect and 100 is complete control),[11]; 31 g ai/ha,60
same,Plant response rating (scale of 0 to 100 where 0 is no effect and 100 is complete control),[11]; 62 g ai/ha,85
same,Plant response rating (scale of 0 to 100 where 0 is no effect and 100 is complete control),[11]; 125 g ai/ha,85
same,Plant response rating (scale of 0 to 100 where 0 is no effect and 100 is complete control),[11]; 250 g ai/ha,95
same,Plant response rating (scale of 0 to 100 where 0 is no effect and 100 is complete control),[12]; 31 g ai/ha,10
same,Plant response rating (scale of 0 to 100 where 0 is no effect and 100 is complete control),[12]; 62 g ai/ha,10
same,Plant response rating (scale of 0 to 100 where 0 is no effect and 100 is complete control),[12]; 125 g ai/ha,15
same,Plant response rating (scale of 0 to 100 where 0 is no effect and 100 is complete control),[12]; 250 g ai/ha,20
same,Plant response rating (scale of 0 to 100 where 0 is no effect and 100 is complete control),[13]; 31 g ai/ha,10
same,Plant response rating (scale of 0 to 100 where 0 is no effect and 100 is complete control),[13]; 62 g ai/ha,10
same,Plant response rating (scale of 0 to 100 where 0 is no effect and 100 is complete control),[13]; 125 g ai/ha,15
same,Plant response rating (scale of 0 to 100 where 0 is no effect and 100 is complete control),[13]; 250 g ai/ha,20
same,pest or weed control at 125 g/ha,[14],20%
same,Plant response rating (scale of 0 to 100 where 0 is no effect and 100 is complete control),[15]; 31 g ai/ha,5
same,Plant response rating (scale of 0 to 100 where 0 is no effect and 100 is complete control),[15]; 62 g ai/ha,5
same,Plant response rating (scale of 0 to 100 where 0 is no effect and 100 is complete control),[15]; 125 g ai/ha,5
same,Plant response rating (scale of 0 to 100 where 0 is no effect and 100 is complete control),[15]; 250 g ai/ha,10
same,Plant response rating (scale of 0 to 100 where 0 is no effect and 100 is complete control),[16]; 31 g ai/ha,50
same,Plant response rating (scale of 0 to 100 where 0 is no effect and 100 is complete control),[16]; 62 g ai/ha,98
same,Plant response rating (scale of 0 to 100 where 0 is no effect and 100 is complete control),[16]; 125 g ai/ha,98
same,Plant response rating (scale of 0 to 100 where 0 is no effect and 100 is complete control),[16]; 250 g ai/ha,100
same,Plant response rating (scale of 0 to 100 where 0 is no effect and 100 is complete control),[17]; 31 g ai/ha,40
same,Plant response rating (scale of 0 to 100 where 0 is no effect and 100 is complete control),[17]; 62 g ai/ha,55
same,Plant response rating (scale of 0 to 100 where 0 is no effect and 100 is complete control),[17]; 125 g ai/ha,60
same,Plant response rating (scale of 0 to 100 where 0 is no effect and 100 is complete control),[17]; 250 g ai/ha,75
same,Plant response rating (scale of 0 to 100 where 0 is no effect and 100 is complete control),[18]; 31 g ai/ha,5
same,Plant response rating (scale of 0 to 100 where 0 is no effect and 100 is complete control),[18]; 62 g ai/ha,5
same,Plant response rating (scale of 0 to 100 where 0 is no effect and 100 is complete control),[18]; 125 g ai/ha,5
same,Plant response rating (scale of 0 to 100 where 0 is no effect and 100 is complete control),[18]; 250 g ai/ha,5
same,Plant response rating (scale of 0 to 100 where 0 is no effect and 100 is complete control),[19]; 31 g ai/ha,5
same,Plant response rating (scale of 0 to 100 where 0 is no effect and 100 is complete control),[19]; 62 g ai/ha,5
same,Plant response rating (scale of 0 to 100 where 0 is no effect and 100 is complete control),[19]; 125 g ai/ha,15
same,Plant response rating (scale of 0 to 100 where 0 is no effect and 100 is complete control),[19]; 250 g ai/ha,35
same,Plant response rating (scale of 0 to 100 where 0 is no effect and 100 is complete control),[20]; 31 g ai/ha,5
same,Plant response rating (scale of 0 to 100 where 0 is no effect and 100 is complete control),[20]; 62 g ai/ha,10
same,Plant response rating (scale of 0 to 100 where 0 is no effect and 100 is complete control),[20]; 125 g ai/ha,15
same,Plant response rating (scale of 0 to 100 where 0 is no effect and 100 is complete control),[20]; 250 g ai/ha,25
